This passage reports inhibition and IC50 results from patent US9474758B2, “Thienopyrimidinedione derivatives as TRPA1 modulators” (Glenmark Pharmaceuticals S.A., priority 2009, dated 2016).

Assay [1] addresses T1, Human TRPA1 expressing CHO cells (Homo sapiens, UniProt O75762).
T1 construct: expressed in transfected cells; host or cells: CHO cells (G-418 selection)
The assay can be described thus: 45Calcium uptake assay, inhibition of AITC induced calcium uptake (human). The format is cell-based. The following applies: human TRPA1 CHO cells, AITC 30 μM; for inhibition at 1 µM: compound 1.0 μM, read-out: Percentage inhibition at 1.0 μM; for inhibition at 10 µM: compound 10.0 μM, read-out: Percentage inhibition at 10.0 μM; for pIC50: read-out: Human IC50 value (Range). On the procedure:
(§1) Screening for TRPA1 Antagonist Using the ^45Calcium Uptake Assay:
(§2) The inhibition of TRPA1 receptor activation was measured as inhibition of allyl isothiocyanate (AITC) induced cellular uptake of radioactive calcium.
(§3) Test compounds were dissolved in 100% DMSO to prepare 10 mM stock and then diluted using plain medium with 0.1% BSA and 1.8 mM CaCl2 to get the desired concentration. The final concentration of DMSO in the reaction was 0.5% (v/v). […] Rat TRPA1 expressing CHO cells were grown in F-12 DMEM medium with 10% FBS, 1% penicillin-streptomycin solution, and 400 μg/ml of Zeocin. […] Cells were treated with the test compounds for 10 minutes followed by the addition of AITC at a final concentration of 30 μM (for human TRPA1) and/or 10 μM (for rat TRPA1) and 5 μCi/ml ^45Ca^+2 for 3 minutes. Cells were washed and lysed using a buffer containing 1% Triton X-100, 0.1% deoxycholate and 0.1% SDS. Radioactivity in the lysate was measured in a Packard TopCount after addition of liquid scintillant.
(§4) Concentration response curves were plotted as a % of maximal response obtained in the absence of test antagonist. IC50 values can be calculated from concentration response curve by nonlinear regression analysis using GraphPad PRISM software.

Assay [2] concerns the target T2, Rat TRPA1 expressing CHO cells (Rattus norvegicus, UniProt Q6RI86).
T2 construct: expressed in transfected cells; host or cells: CHO cells (Zeocin selection)
The assay can be described thus: 45Calcium uptake assay, inhibition of AITC induced calcium uptake (rat). The format is cell-based. The following applies: rat TRPA1 CHO cells, AITC 10 μM; for inhibition at 1 µM: compound 1.0 μM, read-out: Percentage inhibition at 1.0 μM; for inhibition at 10 µM: compound 10.0 μM, read-out: Percentage inhibition at 10.0 μM; for pIC50: read-out: Rat IC50 value (Range). On the procedure: as §1, §2, §3, §4

Each structure is given as a SMILES string. pIC50: −log10 of the molar value. Some results are limits rather than exact numbers.

T1 sequence (O75762 whole entry): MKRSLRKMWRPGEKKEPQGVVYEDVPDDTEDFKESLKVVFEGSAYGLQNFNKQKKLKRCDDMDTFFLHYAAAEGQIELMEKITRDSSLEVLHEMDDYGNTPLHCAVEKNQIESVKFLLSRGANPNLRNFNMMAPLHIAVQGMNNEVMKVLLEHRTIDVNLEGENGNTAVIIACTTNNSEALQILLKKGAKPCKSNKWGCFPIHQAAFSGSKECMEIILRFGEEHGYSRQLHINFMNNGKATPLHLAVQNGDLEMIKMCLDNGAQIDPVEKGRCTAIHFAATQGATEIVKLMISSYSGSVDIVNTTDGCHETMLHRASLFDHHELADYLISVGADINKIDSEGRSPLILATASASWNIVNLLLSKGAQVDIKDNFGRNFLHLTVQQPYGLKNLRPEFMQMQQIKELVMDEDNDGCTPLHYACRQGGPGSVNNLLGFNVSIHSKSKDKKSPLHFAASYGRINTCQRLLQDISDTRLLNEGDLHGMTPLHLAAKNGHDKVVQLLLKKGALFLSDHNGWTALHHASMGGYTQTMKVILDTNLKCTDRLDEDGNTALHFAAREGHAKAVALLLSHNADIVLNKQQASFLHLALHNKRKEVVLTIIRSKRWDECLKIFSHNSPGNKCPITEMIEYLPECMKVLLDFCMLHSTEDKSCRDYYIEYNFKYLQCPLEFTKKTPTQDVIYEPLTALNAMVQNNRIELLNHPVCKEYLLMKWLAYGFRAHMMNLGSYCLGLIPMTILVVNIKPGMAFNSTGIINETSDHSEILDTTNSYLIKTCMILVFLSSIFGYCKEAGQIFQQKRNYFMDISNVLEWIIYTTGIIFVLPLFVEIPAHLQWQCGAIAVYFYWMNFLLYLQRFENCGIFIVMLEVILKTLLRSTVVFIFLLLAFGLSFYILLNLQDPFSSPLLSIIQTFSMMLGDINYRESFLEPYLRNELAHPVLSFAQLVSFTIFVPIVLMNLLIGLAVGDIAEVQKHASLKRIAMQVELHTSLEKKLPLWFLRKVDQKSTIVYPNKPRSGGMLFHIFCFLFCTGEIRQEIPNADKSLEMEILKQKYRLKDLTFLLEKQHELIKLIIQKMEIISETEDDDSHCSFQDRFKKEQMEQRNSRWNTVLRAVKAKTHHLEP
T2 sequence (Q6RI86 whole entry): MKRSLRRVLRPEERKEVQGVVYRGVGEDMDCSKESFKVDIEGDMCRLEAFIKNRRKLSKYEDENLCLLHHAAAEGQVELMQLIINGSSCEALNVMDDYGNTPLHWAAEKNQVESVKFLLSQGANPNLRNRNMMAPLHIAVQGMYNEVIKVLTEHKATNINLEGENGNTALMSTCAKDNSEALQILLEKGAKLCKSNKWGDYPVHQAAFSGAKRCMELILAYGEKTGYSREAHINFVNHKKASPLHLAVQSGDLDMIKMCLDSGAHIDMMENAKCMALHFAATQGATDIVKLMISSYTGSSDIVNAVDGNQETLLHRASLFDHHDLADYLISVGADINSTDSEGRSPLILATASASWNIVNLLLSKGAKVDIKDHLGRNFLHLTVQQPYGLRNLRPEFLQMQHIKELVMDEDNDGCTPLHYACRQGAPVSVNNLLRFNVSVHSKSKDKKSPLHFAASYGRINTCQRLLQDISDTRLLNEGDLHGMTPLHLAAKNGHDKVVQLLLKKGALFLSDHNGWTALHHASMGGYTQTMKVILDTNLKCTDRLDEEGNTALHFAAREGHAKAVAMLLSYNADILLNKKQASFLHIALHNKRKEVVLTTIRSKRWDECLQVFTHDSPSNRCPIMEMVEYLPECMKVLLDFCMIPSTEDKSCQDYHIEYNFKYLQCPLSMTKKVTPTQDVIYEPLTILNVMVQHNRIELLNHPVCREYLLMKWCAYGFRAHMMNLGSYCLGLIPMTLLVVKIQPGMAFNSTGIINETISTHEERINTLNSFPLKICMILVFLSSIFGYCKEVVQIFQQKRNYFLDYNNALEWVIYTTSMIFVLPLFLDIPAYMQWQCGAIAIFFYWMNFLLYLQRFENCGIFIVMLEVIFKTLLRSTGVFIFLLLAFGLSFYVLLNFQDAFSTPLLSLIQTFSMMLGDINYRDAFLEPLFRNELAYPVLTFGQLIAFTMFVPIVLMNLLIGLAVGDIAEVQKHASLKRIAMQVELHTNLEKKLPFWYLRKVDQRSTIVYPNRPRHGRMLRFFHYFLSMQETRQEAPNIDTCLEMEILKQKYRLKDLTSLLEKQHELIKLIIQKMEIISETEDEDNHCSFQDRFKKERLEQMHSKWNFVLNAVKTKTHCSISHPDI

As a reminder, the inhibition is the drop in the measured response relative to a control, in per cent. As a reminder, the pIC50 is −log10 of the IC50, conventionally taken in molar units. As to `Cc1sc2c(c1CC(=O)Nc1nc(-c3ccc(F)c(OC(F)(F)F)c3)cs1)c(=O)n(C)c(=O)n2C` [Example 25, N-{4-[4-Fluoro-3-(trifluoromethoxy)phenyl]-1,3-thiazol-2-yl}-2-(1,3,6-trimethyl-2,4-dioxo-1,2,3,4-tetrahydrothieno[2,3-d]pyrimidin-5-yl)acetamide], in assay [1], the inhibition at 1 µM came out at 98.5%, the inhibition at 10 µM worked out at 98.8% and the pIC50 is over 7.30. Moreover, in assay [2], the inhibition at 1 µM is 99.2%, the inhibition at 10 µM was found to be 99.3% and the pIC50 was 6.30 to 7.30.
Turning to `Cn1c(=O)c2c(CC(=O)Nc3nc(-c4cc(F)cc(C(F)(F)F)c4)cs3)scc2n(C)c1=O` [Example 54, 2-(1,3-Dimethyl-2,4-dioxo-1,2,3,4-tetrahydrothieno[3,4-d]pyrimidin-5-yl)-N-{4-[3-fluoro-5-(trifluoromethyl)phenyl]-1,3-thiazol-2-yl}acetamide], in assay [1], the inhibition at 1 µM turned out to be 95.1%, the inhibition at 10 µM stood at 99.7% and the pIC50 was over 7.30. Further, in assay [2], the inhibition at 1 µM came out at 41.6% and the inhibition at 10 µM worked out at 91.8%.
For `Cn1c(=O)c2c(CC(=O)Nc3nc(-c4ccc(Cl)cc4)cs3)csc2n(C)c1=O` [Example 2, N-[4-(4-Chlorophenyl)-1,3-thiazol-2-yl]-2-(1,3-dimethyl-2,4-dioxo-1,2,3,4-tetrahydrothieno[2,3-d]pyrimidin-5-yl)acetamide], in that order: 99%, 98.8%, 6.30 to 7.30, 91.4% and 99.3%.
Take `Cn1c(=O)c2c(CC(=O)Nc3nc(-c4ccc(OC(F)(F)F)c(F)c4)cs3)csc2n(C)c1=O` [Example 11, 2-(1,3-Dimethyl-2,4-dioxo-1,2,3,4-tetrahydrothieno[2,3-d]pyrimidin-5-yl)-N-{4-[3-fluoro-4-(trifluoromethoxy)phenyl]-1,3-thiazol-2-yl}acetamide]: in assay [1], the inhibition at 1 µM is 98.6%, the inhibition at 10 µM worked out at 97.1% and the pIC50 is over 7.30. For the same molecule, in assay [2], the inhibition at 1 µM turned out to be 98.8%, the inhibition at 10 µM was determined as 99.8% and the pIC50 is over 7.30.
Take `Cn1c(=O)c2c(CC(=O)Nc3nc(-c4cc(F)c(C(F)(F)F)c(F)c4)cs3)csc2n(C)c1=O` [Example 16, N-{4-[3,5-Difluoro-4-(trifluoromethyl)phenyl]-thiazol-2-yl}-2-(1,3-dimethyl-2,4-dioxo-1,2,3,4-tetrahydrothieno[2,3-d]pyrimidin-5-yl)acetamide]: in assay [1], the inhibition at 1 µM was 99.1%, the inhibition at 10 µM came out at 99.1% and the pIC50 was over 7.30. Also, in assay [2], the inhibition at 1 µM was determined as 38.7% and the inhibition at 10 µM turned out to be 98.7%.
Take `CC(C)c1sc2c(c1CC(=O)Nc1nc(-c3ccc(C(F)(F)F)c(F)c3)cs1)c(=O)n(C)c(=O)n2C` [Example 37, N-{4-[3-Fluoro-4-(trifluoromethyl)phenyl]-1,3-thiazol-2-yl}-2-(6-isopropyl-1,3-dimethyl-2,4-dioxo-1,2,3,4-tetrahydrothieno[2,3-d]pyrimidin-5-yl)acetamide]: in assay [1], the inhibition at 1 µM stood at 99%, the inhibition at 10 µM was 97.7% and the pIC50 is over 7.30. In addition, in assay [2], the inhibition at 1 µM worked out at 94.9%, the inhibition at 10 µM worked out at 97% and the pIC50 was over 7.30.
For `CCCc1sc2c(c1CC(=O)Nc1nc(-c3cc(F)c(OC(F)F)c(F)c3)cs1)c(=O)n(C)c(=O)n2C` [Example 36, N-{4-[4-Difluoromethoxy-3,5-difluorophenyl]-1,3-thiazol-2-yl}-2-(1,3-dimethyl-2,4-dioxo-6-propyl-1,2,3,4-tetrahydrothieno[2,3-d]pyrimidin-5-yl) acetamide], in assay [1], the inhibition at 1 µM was 98.9%, the inhibition at 10 µM worked out at 99.8% and the pIC50 was over 7.30. For the same molecule, in assay [2], the inhibition at 1 µM is 99.1%, the inhibition at 10 µM came to 99.5% and the pIC50 is 6.30 to 7.30.
